Experimental data: ChEMBL document CHEMBL5500356, “Design, synthesis, and biological evaluation of novel benzimidazole derivatives as anti-cervical cancer agents through PI3K/Akt/mTOR pathway and tubulin inhibition” (Eur J Med Chem, 2024)
pIC50: −log10 of the molar value. Calls of active or inactive are those of the source. The rule behind the calls is not given here.

What was measured:
[1] = tested on: Ca-Ski; test: Antiproliferative activity against human Ca-Ski cells assessed as cell viability incubated for 48 hrs by MTT assay; format: functional, cell-based
[2] = Cytotoxicity against human HEK293T cells assessed as cell viability incubated for 48 hrs by MTT assay; format: toxicity, cell-based, HEK-293T
[3] = Cytotoxicity against human L02 cells assessed as cell viability incubated for 48 hrs by MTT assay; format: toxicity, cell-based
[4] = tested on: SiHa; test: Antiproliferative activity against human SiHa cells assessed as cell viability incubated for 48 hrs by MTT assay; format: functional, cell-based
[5] = tested on: HeLa; test: Antiproliferative activity against human HeLa cells assessed as cell viability incubated for 48 hrs by MTT assay; format: functional, cell-based
[6] = tested on: SiHa; test: Induction of cell cycle arrest in human SiHa cells assessed as accumulation cells at G2/M phase at 16 uM measured after 24 hrs by flow cytometry (reference value: 5.24%); format: functional
[7] = Acute toxicity in AB-wild type zebrafish embryo assessed as malformation rate at 400 uM measured after 96 hrs; set-up: species or system Danio rerio; settings: in vivo
[8] = tested on: SiHa; test: Induction of apoptosis in human SiHa cells assessed as early apoptotic cells at 16 uM incubated for 24 hr by flow cytometry based annexin V-FITC/PI double-staining analysis (reference value: 2.95%); format: functional
[9] = Acute toxicity in AB-wild type zebrafish embryo assessed as mortalities at 400 uM measured after 96 hrs; set-up: species or system Danio rerio; settings: in vivo, read-out: Activity
[10] = tested on: SiHa; test: Induction of cell cycle arrest in human SiHa cells assessed as accumulation cells at S phase at 16 uM measured after 24 hrs by flow cytometry (reference value: 14.31%); format: functional
[11] = tested on: SiHa; test: Induction of cell cycle arrest in human SiHa cells assessed as accumulation cells at G0/G1 phase at 16 uM measured after 24 hrs by flow cytometry (reference value: 80.45%); format: functional
[12] = tested on: SiHa; test: Induction of apoptosis in human SiHa cells assessed as late apoptotic cells at 16 uM incubated for 24 hr by flow cytometry based annexin V-FITC/PI double-staining analysis (reference value: 8.67%); format: functional
[13] = Acute toxicity in AB-wild type zebrafish embryo assessed as malformation rate at 200 uM measured after 96 hrs; set-up: species or system Danio rerio; settings: in vivo
[14] = tested on: SiHa; test: Induction of cell cycle arrest in human SiHa cells assessed as accumulation cells at G0/G1 phase at 4 uM measured after 24 hrs by flow cytometry (reference value: 80.45%); format: functional
[15] = Acute toxicity in AB-wild type zebrafish embryo assessed as mortalities at 100 uM measured after 96 hrs; set-up: species or system Danio rerio; settings: in vivo, read-out: Activity
[16] = tested on: SiHa; test: Effect on mTOR protein expression in human SiHa cells at 4 to 16 uM incubated for 24 hrs by Western blot analysis; format: functional, cell-based; settings: dose 4-16 µM
[17] = Acute toxicity in AB-wild type zebrafish embryo assessed as malformation rate at 100 uM measured after 96 hrs; set-up: species or system Danio rerio; settings: in vivo
[18] = Acute toxicity in AB-wild type zebrafish embryo assessed as malformation rate at 25 uM measured after 96 hrs; set-up: species or system Danio rerio; settings: in vivo
[19] = tested on: SiHa; test: Induction of apoptosis in human SiHa cells assessed as early apoptotic cells at 4 uM incubated for 24 hr by flow cytometry based annexin V-FITC/PI double-staining analysis (reference value: 2.95%); format: functional
[20] = Acute toxicity in AB-wild type zebrafish embryo assessed as mortalities at 12.5 uM measured after 96 hrs; set-up: species or system Danio rerio; settings: in vivo, read-out: Activity
[21] = tested on: SiHa; test: Induction of apoptosis in human SiHa cells assessed as late apoptotic cells at 4 uM incubated for 24 hr by flow cytometry based annexin V-FITC/PI double-staining analysis (reference value: 8.67%); format: functional
[22] = tested on: SiHa; test: Induction of cell cycle arrest in human SiHa cells assessed as accumulation cells at G2/M phase at 4 uM measured after 24 hrs by flow cytometry (reference value: 5.24%); format: functional
[23] = Acute toxicity in AB-wild type zebrafish embryo assessed as mortalities at 200 uM measured after 96 hrs; set-up: species or system Danio rerio; settings: in vivo, read-out: Activity
[24] = Acute toxicity in AB-wild type zebrafish embryo assessed as mortalities at 50 uM measured after 96 hrs; set-up: species or system Danio rerio; settings: in vivo, read-out: Activity
[25] = tested on: SiHa; test: Induction of cell cycle arrest in human SiHa cells assessed as accumulation cells at S phase at 8 uM measured after 24 hrs by flow cytometry (reference value: 14.31%); format: functional
[26] = Acute toxicity in AB-wild type zebrafish embryo assessed as mortalities at 25 uM measured after 96 hrs; set-up: species or system Danio rerio; settings: in vivo, read-out: Activity
[27] = tested on: SiHa; test: Induction of cell cycle arrest in human SiHa cells assessed as accumulation cells at G0/G1 phase at 8 uM measured after 24 hrs by flow cytometry (reference value: 80.45%); format: functional
[28] = tested on: SiHa; test: Induction of apoptosis in human SiHa cells assessed as late apoptotic cells at 8 uM incubated for 24 hr by flow cytometry based annexin V-FITC/PI double-staining analysis (reference value: 8.67%); format: functional
[29] = biological target: T1, Tubulin (Homo sapiens) (UniProt P68371+Q9H4B7+P0DPH7+P68366+Q13509+Q71U36+P04350+Q3ZCM7+P07437+P68363+Q9BQE3+Q6PEY2+Q13885+Q9BVA1+Q9BUF5); test: Inhibition of tubulin polymerization in human SiHa cells incubated for 24 hrs by DAPI fluorescence staining assay; format: cell-based; settings: dose 4-16 µM
[30] = tested on: SiHa; test: Effect on PI3K protein expression in human SiHa cells at 4 to 16 uM incubated for 24 hrs by Western blot analysis; format: functional, cell-based; settings: dose 4-16 µM
[31] = biological target: Serine/threonine-protein kinase mTOR (Homo sapiens) (UniProt P42345); test: Inhibition of mTOR phosphorylation in human SiHa cells at 4 to 16 uM incubated for 24 hrs by Western blot analysis; format: cell-based; settings: dose 4-16 µM
[32] = Acute toxicity in AB-wild type zebrafish embryo assessed as malformation rate at 12.5 uM measured after 96 hrs; set-up: species or system Danio rerio; settings: in vivo
[33] = tested on: SiHa; test: Inhibition of PI3K phosphorylation in human SiHa cells at 4 to 16 uM incubated for 24 hrs by Western blot analysis; format: cell-based; settings: dose 4-16 µM
[34] = Acute toxicity in AB-wild type zebrafish embryo assessed as malformation rate at 50 uM measured after 96 hrs; set-up: species or system Danio rerio; settings: in vivo
[35] = tested on: SiHa; test: Induction of apoptosis in human SiHa cells assessed as early apoptotic cells at 8 uM incubated for 24 hr by flow cytometry based annexin V-FITC/PI double-staining analysis (reference value: 2.95%); format: functional
[36] = biological target: T1, Tubulin (Homo sapiens); test: Inhibition of tubulin formation in human SiHa cells incubated for 24 hrs by Western blot analysis; format: cell-based
[37] = tested on: SiHa; test: Effect on Akt protein expression in human SiHa cells at 4 to 16 uM incubated for 24 hrs by Western blot analysis; format: functional, cell-based; settings: dose 4-16 µM
[38] = tested on: SiHa; test: Induction of cell cycle arrest in human SiHa cells assessed as accumulation cells at G2/M phase at 8 uM measured after 24 hrs by flow cytometry (reference value: 5.24%); format: functional
[39] = tested on: SiHa; test: Induction of cell cycle arrest in human SiHa cells assessed as accumulation cells at S phase at 4 uM measured after 24 hrs by flow cytometry (reference value: 14.31%); format: functional
[40] = biological target: RAC-alpha serine/threonine-protein kinase (Homo sapiens) (UniProt P31749); test: Inhibition of Akt phosphorylation in human SiHa cells at 4 to 16 uM incubated for 24 hrs by Western blot analysis; format: cell-based; settings: dose 4-16 µM
Chain of RAC-alpha serine/threonine-protein kinase (Homo sapiens) (P31749 whole entry): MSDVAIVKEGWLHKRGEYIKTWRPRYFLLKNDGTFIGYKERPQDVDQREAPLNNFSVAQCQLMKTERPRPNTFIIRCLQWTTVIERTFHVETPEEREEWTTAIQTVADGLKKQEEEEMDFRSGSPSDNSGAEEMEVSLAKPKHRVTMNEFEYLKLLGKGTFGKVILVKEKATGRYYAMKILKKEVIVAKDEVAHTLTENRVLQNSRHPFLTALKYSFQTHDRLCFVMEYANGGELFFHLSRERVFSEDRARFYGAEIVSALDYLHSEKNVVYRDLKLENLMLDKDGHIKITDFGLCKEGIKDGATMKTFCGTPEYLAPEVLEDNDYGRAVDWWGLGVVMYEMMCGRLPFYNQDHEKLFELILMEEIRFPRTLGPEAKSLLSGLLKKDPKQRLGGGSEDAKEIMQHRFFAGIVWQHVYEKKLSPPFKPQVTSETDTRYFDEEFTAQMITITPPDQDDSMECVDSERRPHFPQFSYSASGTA

With `COc1cc(-c2nc3cc(N4CCOCC4)c(C#Cc4ccccc4F)cc3[nH]2)cc(OC)c1OC` the pIC50 [1] was 4.97, the IC50 at 48 h [2] was 38.6 µM and the IC50 at 48 h [3] was 6.98 µM. For the same compound, the pIC50 [4] was < 4.00 and the pIC50 [5] was 5.07.

`COc1cc(OC)c(-c2nc3cc(N4CCN(C)CC4)c(C#Cc4ccccc4Cl)cc3[nH]2)cc1OC` showed a pIC50 [1] of 5.27, an IC50 at 48 h [2] of 4.55 µM and an IC50 at 48 h [3] of 2.04 µM. It also gave a pIC50 [4] of 5.22 and a pIC50 [5] of 5.53.

`COc1cc(-c2nc3cc(N4CCN(C)CC4)c(C#Cc4ccc(Cl)cc4)cc3[nH]2)cc(OC)c1OC` gave a pIC50 [1] of 5.40, an IC50 at 48 h [2] of 4.12 µM and an IC50 at 48 h [3] of 2.07 µM. It also gave a pIC50 [4] of 5.26 and a pIC50 [5] of 5.46.

`COc1cc(OC)c(-c2nc3cc(N4CCOCC4)c(C#Cc4ccccc4Cl)cc3[nH]2)cc1OC` gave a pIC50 [1] of 4.65, an IC50 at 48 h [2] of 0.68 µM and an IC50 at 48 h [3] of 18.9 µM. For the same compound, the pIC50 [4] was 4.61 and the pIC50 [5] was 4.77.

Compound `COc1cc(-c2nc3cc(N4CCN(C)CC4)c(C#Cc4ccccc4)cc3[nH]2)cc(OC)c1OC` has a pIC50 [1] of 5.36, an IC50 at 48 h [2] of 1.2 µM and an IC50 at 48 h [3] of 3.82 µM. For the same compound, the pIC50 [4] was 5.30 and the pIC50 [5] was 5.30.

`COc1cc(OC)c(-c2nc3cc(N4CCOCC4)c(C#Cc4ccccc4F)cc3[nH]2)cc1OC` gave a pIC50 [1] of 4.94, an IC50 at 48 h [2] of 4.83 µM and an IC50 at 48 h [3] of 9.1 µM. For the same compound, the pIC50 [4] was 4.57 and the pIC50 [5] was 4.70.

With `COc1cc(-c2nc3cc(N4CCOCC4)c(C#Cc4ccc(Cl)cc4)cc3[nH]2)cc(OC)c1OC` the pIC50 [1] was 4.84, the IC50 at 48 h [2] was 15.9 µM and the IC50 at 48 h [3] was 12.8 µM. For the same compound, the pIC50 [4] was 4.68 and the pIC50 [5] was 5.49.

`COc1ccc(C#Cc2cc3[nH]c(-c4cc(OC)c(OC)c(OC)c4)nc3cc2N2CCOCC2)cc1` gave a pIC50 [1] of 5.04, an IC50 at 48 h [2] of 2.18 µM and an IC50 at 48 h [3] of 8.82 µM. It also gave a pIC50 [4] of 4.57 and a pIC50 [5] of 5.44.

`Nc1cc(C(F)(F)F)c(-c2cc(N3CCOCC3)nc(N3CCOCC3)n2)cn1` [BUPARLISIB] gave a pIC50 [1] of 6.13, an IC50 at 48 h [2] of 6.11 µM and an Activity [6] of 28.47%. For the same compound, the Activity [7] was 0%, the Activity [8] was 10.27% and the mortality at 96 h, 400 µM [9] was 0%. It also gave an Activity [10] of 11.27%, an IC50 at 48 h [3] of 59.2 µM and a pIC50 [4] of 4.93. The Activity [11] was 62.27%, the pIC50 [5] was 5.04 and the Activity [12] was 7.83%.

`COc1cc(-c2nc3cc(N4CCN(C)CC4)c(C#Cc4ccccc4F)cc3[nH]2)cc(OC)c1OC` showed an Activity [13] of 0%, an Activity [14] of 82.4% and a mortality at 96 h, 100 µM [15] of 0%. For the same compound, the Activity [16] was “inactive”, the Activity [17] was 0% and the Activity [18] was 0%. The pIC50 [1] was 5.14, the IC50 at 48 h [2] was 24 µM and the Activity [19] was 8.55%. The mortality at 96 h, 12.5 µM [20] was 0%, the Activity [21] was 8.49% and the Activity [6] was 28.37%. It also gave an Activity [22] of 7.26%, an Activity [7] of 0% and a mortality at 96 h, 200 µM [23] of 0%. It also gave an Activity [8] of 82.7%, a mortality at 96 h, 400 µM [9] of 0% and a mortality at 96 h, 50 µM [24] of 0%. The Activity [25] was 8.71%, the mortality at 96 h, 25 µM [26] was 0% and the Activity [27] was 82.37%. The Activity [28] was 16.43%, the Activity [10] was 16.33% and the inhibition [29] was “Dose-Dependent Effect”. For the same compound, the IC50 at 48 h [3] was 21.1 µM, the Activity [30] was “inactive” and the inhibition [31] was “Active”. For the same compound, the Activity [32] was 0%, the inhibition [33] was “Active” and the Activity [34] was 0%. The Activity [35] was 66.56%, the inhibition [36] was “Dose-Dependent Effect” and the Activity [37] was “inactive”. It also gave a pIC50 [4] of 5.47, an Activity [38] of 8.92% and an Activity [11] of 55.29%. It also gave an Activity [39] of 9.89%, a pIC50 [5] of 5.30 and an Activity [12] of 15.86%. For the same compound, the inhibition [40] was “Active”.

In the case of `COc1cc(OC)c(-c2nc3cc(N4CCN(C)CC4)c(C#Cc4ccccc4)cc3[nH]2)cc1OC`, the pIC50 [1] was < 4.00, the IC50 at 48 h [2] was 4.07 µM and the IC50 at 48 h [3] was 6.59 µM. The pIC50 [4] was 5.21 and the pIC50 [5] was 5.28.
